Results from PubChem BioAssay AID624285 (Broad Institute, 2012).
Values joined by “and” are separate entries in the source; they are usually repeats but may differ in a detail not shown here. Equal values may be shown once. Active and inactive are the calls of the source.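 The calls were made as follows: active = signal-decreasing dose-response curve whose fitted half-maximal concentration is at or below twice the highest valid tested dose; inconclusive = flat fit at 30 to 70% signal loss, or poor fit; inactive = the rest.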

Test: cell viability loss after compound exposure – 24 h, luminescence, cherry-picked samples, cytotoxicity control for PDI inhibitor project, dose response (AID 624285)
Settings: NIH3T3/HeLa viability, CellTiter-Glo ATP luminescence, 24 h; at 35 µM (top of the series)

Row | Structure (SMILES) | activity change, negative = cytotoxicity
1 | Cc1ccc(S(=O)(=O)N2CCC(C(=O)Nc3ccc(S(=O)(=O)N4CCCC4)cc3)CC2)cc1 | -22.6% (inactive)
2 | CC(=O)OCC(=O)NCc1ccc2c(c1)OCO2 | -5.14% (inactive)
3 | CC(NC(=O)COC(=O)Cc1ccccc1[N+](=O)[O-])c1ccccc1 (centres undefined) | -0.036% (inactive)
4 | COc1ccc(OC)c(CN2CCN(Cc3cc(=O)oc4cc(O)ccc34)CC2)c1 | -20.6% (inactive)
5 | COc1ccc(CNC(=O)c2ccc(CS(=O)Cc3cccc(Cl)c3)o2)cc1 (centres undefined) | -9.18% (inactive)
6 | COc1ccc(C2c3ccc(O)cc3Oc3ncn(Cc4ccco4)c(=N)c32)cc1OC (centres undefined) | -14.4% (inactive)
7 | S=C(NCCN1CCOCC1)Nc1ccc(Br)cc1 | -9.3% (inactive)
8 | CCOc1ccc(/C=N/OC(C)C(=O)NCc2ccc3c(c2)OCO3)cc1 (centres undefined) | -5.51% (inactive)
9 | OCCC1CN(Cc2cccn2-c2ccccn2)CCN1C1CCCCC1 (centres undefined) | -20.5% (inactive)
10 | Cc1cccc(NC(=S)NCC23C=CC(O2)C2C(=O)N(c4ccc(Cl)cc4)C(=O)C23)c1 (centres undefined) | -20.9% (inactive)
11 | CSc1cccc(NC(=O)CN(C)S(=O)(=O)c2ccc(F)cc2)c1 | -8.11% (inactive)
12 | O=c1c(O[C@H]2O[C@@H](CO)[C@H](O)[C@@H](O)[C@@H]2O)c(-c2ccc(O)cc2)oc2cc(O)cc(O)c12 | -3.13% (inactive)
13 | C[C@H]1CN([C@@H](C)CO)C(=O)c2cc(NC(=O)Cc3cn(C)c4ccccc34)ccc2O[C@H]1CN(C)S(=O)(=O)c1ccc(F)cc1 | -5.48% (inactive)
14 | CC1(C(=O)NS(=O)(=O)c2ccccc2Cl)CCN1C(=O)c1ccccc1CCc1ccccc1 (centres undefined) | -8.92% (inactive)
15 | CCCCn1c(SCC(=O)NC2CCS(=O)(=O)C2)nc2ccccc2c1=O (centres undefined) | -8.17% (inactive)
16 | C=CCn1c(C(CCCC)CC(O)COCC(C)C)n[nH]c1=S (centres undefined) | -17.2% (inactive)
17 | O=c1[nH]c(C2CCN(S(=O)(=O)c3ccc(C(F)(F)F)cc3)CC2)nc2c1nnn2Cc1ccc(F)cc1 | -22.8% (inactive)
18 | O=C(/C=C/c1ccccc1)Nc1scc(-c2ccccc2)c1C(=O)O | -11.6% (inactive)
19 | CCCNC(=O)Cn1c(-c2ccc(F)cc2)cc(C(=O)OCC)c1C | -18.9% (inactive)
20 | Cc1ccc(CN(c2ccc(C(=O)Nc3ccc4c(c3)OCO4)cc2)S(C)(=O)=O)cc1 | -9.66% (inactive)
21 | CC(C)Oc1cccc(C(=O)NC(=S)Nc2cccc(NC(=O)c3ccccc3Cl)c2)c1 | -18.2% (inactive)
22 | CN(C)C(=O)CSc1n[nH]c(-c2ccco2)n1 | -5.07% (inactive)
23 | C[C@@H]1O[C@@H](O[C@@H]2C(=O)c3c(O)cc(O)cc3O[C@H]2c2ccc(O)c(O)c2)[C@H](O)[C@H](O)[C@H]1O | -7.93% (inactive)
24 | CCN(CC)C(=O)CSc1nnc([C@H](Cc2c[nH]c3ccccc23)NC(=O)OC(C)(C)C)o1 | -8.74% (inactive)
25 | CN(C)C(=O)CSc1nnc([C@H](Cc2ccccc2)NC(=O)OC(C)(C)C)o1 | -9.45% (inactive)

Row | Structure (SMILES) | activity change, negative = cytotoxicity
26 | CCc1nc2ccc(C(=O)N(CC)CC(=O)Nc3c(F)cccc3F)cc2nc1CC | -5.83% (inactive)
27 | Cc1nnc(N/N=C/c2ccc(-c3ccccc3F)o2)n1N | -8.41% (inactive)
28 | CN(C)CCN(C(=O)c1ccc(S(=O)(=O)N2CCc3ccccc32)cc1)c1nc2ccc(F)cc2s1 | -13.9% (inactive)
29 | O=C1NC(Cc2ccc(O)cc2)c2nc3ccccc3c(=O)n2-c2ncccc21 (centres undefined) | -7.17% (inactive)
30 | CCOC(=O)c1c(CN(CC)CC)n(C)c2cc(Br)c(O)cc12 | -10.4% (inactive)
31 | CC1(C(=O)N2CCCCC2)CCN1C(=O)Cc1ccc(-c2ccccc2)cc1 (centres undefined) | -5.8% (inactive)
32 | CC(=O)N1CCC(C(=O)NCCOc2cccc(C)c2)CC1 | -15.7% (inactive)
33 | COc1ccc(OC)c2[nH]c(=O)c(CCNC(=O)C(=O)c3c(C)[nH]c4ccccc34)cc12 | -1.3% (inactive)
34 | COC(=O)c1ccc(COC(=O)CSCC(=O)Nc2ccc(C)cc2C)cc1 | -2.15% (inactive)
35 | Cc1ccc(CN(c2ccc(C(=O)NCc3ccccn3)cc2)S(C)(=O)=O)cc1 | -10.4% (inactive)
36 | CC1(C)CC[C@]2(C(=O)O)CC[C@]3(C)C(=CC[C@@H]4[C@@]5(C)CC[C@H](O[C@@H]6O[C@H](C(=O)O)[C@@H](O)[C@H](O[C@@H]7OC[C@H](O)[C@H](O)[C@H]7O)[C@H]6O)C(C)(C)[C@@H]5CC[C@]43C)[C@@H]2C1 | -3.34% (inactive)
37 | NC1=NC[C@H](Cc2ccc(O)cc2)N1CC1CCCCC1 | -11.8% (inactive)
38 | CCOC(=O)c1ccc2c(c1)nc(SCC(=O)N1CCCCC1)n2CC | -10.4% (inactive)
39 | CC(Cc1ccccc1Sc1ccccc1O)N(C)C (centres undefined) | -11.9% (inactive)
40 | CCOc1ccc2nc(NS(=O)(=O)Cc3ccccc3)sc2c1 | -6.13% (inactive)
41 | O=C(NC(Cc1ccc(O)cc1)C(=O)N=Nc1c(O)[nH]c2ccccc12)c1ccccc1 (centres undefined) | -6.54% (inactive)
42 | Cc1cc(C)c(C)c(S(=O)(=O)N2CCC(C(=O)N(C)Cc3nc4ccccc4c(=O)[nH]3)CC2)c1C | -5.52% (inactive)
43 | CCOC(=O)c1c(CN2CCOCC2)n(-c2ccccc2)c2cc(Br)c(OC)cc12 | -12.1% (inactive)
44 | COc1ccccc1NS(=O)(=O)c1ccc(C)c(C(=O)NCC2(N(C)C)CCCCC2)c1 | -11.3% (inactive)
45 | Cc1noc(C)c1S(=O)(=O)Nc1ccc2c(c1)CC(=O)N([C@@H](C)CO)C[C@H](C)[C@H](CN(C)S(=O)(=O)c1ccc(F)cc1)O2 | 7.36% (inactive)
46 | CCOc1ccc(NC(=O)CN(C)C(=O)c2cc(C)nc3ccccc23)cc1OCC | -13.4% (inactive)
47 | COC(=O)C(Cc1ccc(O)cc1)N1Cc2ccccc2C1=O (centres undefined) | -9.13% (inactive)
48 | CNC[C@@H]1Oc2c(NS(C)(=O)=O)cccc2C(=O)N([C@@H](C)CO)C[C@H]1C | 1.39% (inactive)
49 | C[C@H](CO)N1C[C@H](C)[C@H](CN(C)Cc2ccc(Oc3ccccc3)cc2)Oc2c(NS(C)(=O)=O)cccc2C1=O | -6.82% (inactive)
50 | C[C@@H]1O[C@@H](Oc2c(-c3ccc(O)c(O)c3)oc3cc(O)cc(O)c3c2=O)[C@H](O)[C@H](O)[C@H]1O | -1.28% (inactive) and -10.2% (inactive)

Row | Structure (SMILES) | activity change, negative = cytotoxicity
51 | COc1ccc(N2CCN(CC(=O)c3ccc(O)c(C)c3O)CC2)cc1 | -3.44% (inactive)
52 | CC[C@]12c3[nH]c4cc(-c5ccco5)ccc4c3CCN1C(=O)[C@@H](CC(=O)NCc1ccc(OC)c(OC)c1)C[C@@H]2C(=O)N1CCN(C(=O)C2CC2)CC1 | -17.7% (inactive)
53 | C[C@@H]1O[C@@H](O[C@H]2[C@H](O)[C@@H](O)[C@H](Oc3c(-c4ccc(O)cc4)oc4cc(O)cc(O)c4c3=O)O[C@@H]2CO)[C@H](O)[C@H](O)[C@H]1O | -3.49% (inactive)
54 | COc1cccc(/C=N/NC(=O)CNC(=O)C(c2ccccc2)c2ccccc2)c1O | -15.7% (inactive)
55 | COc1cccc(NS(=O)(=O)c2ccc3c(c2)C2C=CCC2C(c2ccc(C(=O)O)cc2)N3)c1 (centres undefined) | -7.82% (inactive)
56 | Cc1[nH]c2ccc(C(=O)NC3CCCC3)cc2c1C | -3.79% (inactive)
57 | CCCn1nnnc1NC(=O)c1cccs1 | -5.77% (inactive)
58 | O=C(OCc1ccc(-c2ccccc2)cc1)c1cccc(O)c1 | -8.38% (inactive)
59 | C[C@@H]1O[C@@H](O[C@H]2[C@H](O)[C@@H](O)[C@H](Oc3c(-c4ccc(O)c(O)c4)oc4cc(O)cc(O)c4c3=O)O[C@@H]2CO)[C@H](O)[C@H](O)[C@H]1O | 1.36% (inactive)
60 | CC(OC(=O)c1cccc(S(=O)(=O)N(C)C)c1)C(=O)NCC(=O)Nc1ccc(F)c(F)c1F (centres undefined) | -4.24% (inactive)
61 | CCCCNC(=O)N1CCN(C(=O)C2CCCO2)CC1 (centres undefined) | -4.25% (inactive)
62 | C[C@@H]1CN([C@H](C)CO)C(=O)Cc2cc(NC(=O)Nc3ccccc3)ccc2O[C@H]1CN(C)Cc1ccccc1 | 1.49% (inactive)
63 | O=C(CNC(=O)c1n[nH]c2ccccc12)Nc1cc(Cl)ccc1Cl | -8.33% (inactive)
64 | O=C(CN1CCN(c2ccc(O)cc2)CC1)Nc1cc(S(=O)(=O)N2CCOCC2)ccc1Cl | -13.3% (inactive)
65 | COc1ccc(S(=O)(=O)NCC(c2ccc(F)cc2)N2CCOCC2)cc1Br (centres undefined) | -10.1% (inactive)
66 | CC(O)(c1cccnc1)c1nc(-c2cc(F)cc(F)c2)cs1 (centres undefined) | -6.67% (inactive)
67 | NC(=O)c1ccc(NC(=O)COC(=O)c2ccc(Br)c(S(=O)(=O)N3CCOCC3)c2)cc1 | -6.39% (inactive)
68 | Cc1noc(C)c1S(=O)(=O)Nc1ccc2c(c1)CC(=O)N([C@@H](C)CO)C[C@H](C)[C@@H](CN(C)S(=O)(=O)c1ccc(F)cc1)O2 | 2.55% (inactive)
69 | C[C@@H]1O[C@@H](OC[C@@H]2O[C@H](Oc3c(-c4ccc(O)cc4)oc4cc(O)cc(O)c4c3=O)[C@@H](O)[C@H](O)[C@H]2O)[C@H](O)[C@H](O)[C@H]1O | 0.405% (inactive)
70 | CC(=O)c1ccc(OCc2cc(C(=O)N3CCCCC3c3cccnc3)no2)cc1 (centres undefined) | -6.2% (inactive)
71 | O=C(O)CCCCCn1c(SCC(=O)c2ccc(O)c(O)c2)nc2ccsc2c1=O | -10.6% (inactive)
72 | O=C(CCN1C(=O)C2C3C=CC(C4CC34)C2C1=O)Oc1ccccc1 (centres undefined) | -3.44% (inactive)
73 | CC(Cc1ccc(O)cc1)NCC(O)c1ccc(O)c(O)c1 (centres undefined) | -7.22% (inactive)
74 | COc1ccc(S(=O)(=O)NC(C)C(=O)Nc2ccccc2F)cc1 (centres undefined) | -4.66% (inactive)
